From PubChem BioAssay AID254 (DTP/NCI, 2004)
Values joined by “and” are separate entries in the source; they are usually repeats but may differ in a detail not shown here. Identical values can stand only once. Inconclusive results and toxic doses are left out.

System: L1210 leukemia iv in BDF1 mice, survival T/C
Test: NCI In Vivo Anticancer Drug Screen. Data for tumor model L1210 Leukemia (intravenous) in B6D2F1 (BDF1) mice
Conditions: endpoint: mean survival time, higher = longer survival
Method: The antitumor activity of compounds was measured in mice bearing transplantable tumors. Survival or tumor size were measured and the results are expressed as the measurement made in the treated group (T) divided by the measurement made in the vehicle treated control group (C). The tumor model used in this assay is L1210 Leukemia (intravenous) in B6D2F1 (BDF1) mice

NC(=S)N/N=C/c1ccccn1
T/C (dose: 5.0 mg/kg/injection, schedule: Q01HX008 (ip), vehicle: other): 105 % of control | T/C (dose: 5.0 mg/kg/injection, schedule: Q03HX008 (ip), vehicle: other): 166 % of control | T/C (dose: 8.0 mg/kg/injection, schedule: Q01DX008 (ip), vehicle: other): 176 % of control | T/C (dose: 8.0 mg/kg/injection, schedule: Q03HX008 (ip), vehicle: other): 208 % of control | T/C (dose: 8.0 mg/kg/injection, schedule: Q06HX008 (ip), vehicle: other): 176 % of control | T/C (dose: 8.0 mg/kg/injection, schedule: Q12HX008 (ip), vehicle: other): 200 % of control | T/C (dose: 22.0 mg/kg/injection, schedule: Q01DX001 (ip), vehicle: other): 111 % of control | T/C (dose: 33.0 mg/kg/injection, schedule: Q01DX001 (ip), vehicle: other): 110 % of control

CC(=O)OC1CCC(NC(=O)N(CCF)N=O)CC1 (configuration not stated)
T/C (dose: 16.0 mg/kg/injection, schedule: Q01DX001 (ip), vehicle: other): 175 % of control | T/C (dose: 24.0 mg/kg/injection, schedule: Q01DX001 (ip), vehicle: other): 248 % of control | T/C (dose: 32.0 mg/kg/injection, schedule: Q01DX001 (oral), vehicle: other): 441 % of control | T/C (dose: 36.0 mg/kg/injection, schedule: Q01DX001 (ip), vehicle: other): 473 % of control

N[C@@H](Cc1ccc(N(CCCl)CCCl)cc1)C(=O)O
T/C (dose: 0.1 mg/kg/injection, schedule: Q01DX015 (ip), vehicle: carboxymethylcellulose (CMC)): 94 % of control and 103 % of control | T/C (dose: 0.2 mg/kg/injection, schedule: Q01DX015 (ip), vehicle: carboxymethylcellulose (CMC)): 107 % of control and 96 % of control | T/C (dose: 0.4 mg/kg/injection, schedule: Q01DX015 (ip), vehicle: carboxymethylcellulose (CMC)): 107 % of control and 98 % of control | T/C (dose: 0.8 mg/kg/injection, schedule: Q01DX015 (ip), vehicle: carboxymethylcellulose (CMC)): 100 % of control and 103 % of control | T/C (dose: 1.13 mg/kg/injection, schedule: Q01DX001 (ip), vehicle: carboxymethylcellulose (CMC)): 105 % of control | T/C (dose: 1.6 mg/kg/injection, schedule: Q01DX015 (ip), vehicle: carboxymethylcellulose (CMC)): 107 % of control and 101 % of control | T/C (dose: 1.7 mg/kg/injection, schedule: Q01DX001 (ip), vehicle: carboxymethylcellulose (CMC)): 95 % of control and 102 % of control | T/C (dose: 2.25 mg/kg/injection, schedule: Q01DX001 (ip), vehicle: carboxymethylcellulose (CMC)): 109 % of control and 96 % of control | T/C (dose: 3.0 mg/kg/injection, schedule: Q01DX001 (ip), vehicle: carboxymethylcellulose (CMC)): 106 % of control and 97 % of control | T/C (dose: 4.5 mg/kg/injection, schedule: Q01DX001 (ip), vehicle: carboxymethylcellulose (CMC)): 105 % of control and 113 % of control | T/C (dose: 4.75 mg/kg/injection, schedule: Q01DX001 (ip), vehicle: Klucel (hydroxypropylcellulose) (HPC)): 104 % of control and 105 % of control | T/C (dose: 7.0 mg/kg/injection, schedule: Q01DX001 (ip), vehicle: carboxymethylcellulose (CMC)): 105 % of control | T/C (dose: 9.0 mg/kg/injection, schedule: Q01DX001 (ip), vehicle: carboxymethylcellulose (CMC)): 155 % of control | T/C (dose: 14.0 mg/kg/injection, schedule: Q01DX001 (ip), vehicle: carboxymethylcellulose (CMC)): 181 % of control | T/C (dose: 14.25 mg/kg/injection, schedule: Q01DX001 (ip), vehicle: Klucel (hydroxypropylcellulose) (HPC)): 177 % of control | T/C (dose: 15.0 mg/kg/injection, schedule: Q01DX001 (ip), vehicle: saline): 163 % of control and 195 % of control | T/C (dose: 18.0 mg/kg/injection, schedule: Q01DX001 (ip), vehicle: carboxymethylcellulose (CMC)): 190 % of control and 255 % of control | T/C (dose: 19.0 mg/kg/injection, schedule: Q01DX001 (ip), vehicle: Klucel (hydroxypropylcellulose) (HPC)): 214 % of control and 215 % of control | T/C (dose: 23.75 mg/kg/injection, schedule: Q01DX001 (ip), vehicle: Klucel (hydroxypropylcellulose) (HPC)): 177 % of control | T/C (dose: 29.0 mg/kg/injection, schedule: Q01DX001 (ip), vehicle: carboxymethylcellulose (CMC)): 206 % of control
